Test system: 636577-100-R-J1-PDC complex spheroid viability
Assay: Anticancer human tumor 636577-100-R-J1-PDC patient-derived endometrial adenocarcinoma cell line growth inhibition [GQUAD]
Details: for IC50: curve of first compound; for viability, T/C: stronger effect = lower value
From the text: DNA G-quadruplex Stabilizer Agents in Combinations in Complex Spheroids
A high-throughput screen of multi-cell type tumor spheroids was designed to identify active combinations of DNA G-quadruplex stabilizer agents and targeted small molecules. Complex spheroids include a stromal component modeled by human endothelial cells (HUVEC) and fibroblasts modeled by human mesenchymal stem cells (MSCs). The concentration ranges selected for each drug and investigational agent were based upon clinically achievable concentrations if the clinical Cmax of the agent was known.
Compounds. The drugs and investigational agents: pidnarulex (CX-5461; NSC782164), APTO-253 (NSC789042), BRACO-19 (NSC847499), peposertib (NSC802822), ceralasertib (NSC780249), elimusertib (NSC800525), camonsertib (NSC841442), AZD-1390 (NSC803789), olaparib (NSC753686), talazoparib (NSC767125), ART-558 (NSC835418), sotorasib (NSC818433), MRTX-1133 (NSC836407), SN-38 (NSC673596), topotecan (NSC609699), etoposide (NSC141540), doxorubicin (NSC123127), gemcitabine (NSC613327), 5-fluorouracil (NSC19893), paclitaxel (NSC125973), vemurafenib (NSC761431), panobinostat (NSC761190), R-306465 (JNJ-16241199; NSC773264), adavosertib (NSC754352), TP-3654 (NSC805149), carboplatin (NSC241240), KSQ-4279 (NSC840948), and staurosporine (NSC755774) were obtained from the National Cancer Institute (NCI) Developmental Therapeutics Program Chemical Repository (34). The FDA-approved anticancer drug set is available from the NCI Developmental Therapeutics Program. […] The stock solutions were prepared in dimethyl sulfoxide (DMSO, Sigma-Aldrich, St. Louis, MO, cat. D2650) at 800-fold the tested concentration and stored at -70 degrees C prior to their use. All drugs and investigational agents were tested over a range starting from a high concentration at or near the clinical Cmax and decreasing in half-log increments. If the clinical Cmax for an agent had not been determined, the highest concentration tested was 10 microM.
2.3 Cell Culture. All cells were maintained in an incubator at 37 degrees C and 5% CO2 with 95% humidity. The PDC lines were cultured according to standard operating procedures established by the NCI PDMR. All PDCs were thawed and cultured in Matrigel-coated flasks prepared with a working solution of 1X Ham's F-12 nutrient mix, without supplementation (Invitrogen, cat. 11765054), 100 U/mL penicillin-streptomycin (Invitrogen, cat. 15140122), and 2.5% Matrigel (Corning Inc., cat. 354248) for the first three passages. The 857933-349-R-J2-PDC line was cultured in 6C/Colon 1B media, which includes advanced DMEM/F-12 (Thermo Fisher Scientific, cat. 12634028), 10 mM HEPES (Thermo Fisher Scientific, cat. 15630080), 1X GlutaMAX supplement (Thermo Fisher Scientific, cat. 35050061), 0.1 mg/mL primocin (InvivoGen, cat. ant-pm-2), 10% defined fetal bovine serum, heat inactivated (HyClone Laboratories Inc., cat. SH30070.03HI), 50% L-WRN conditioned media (ATCC, cat. CRL-3276), 1.25 mM N-Acetyl-L-cysteine (Sigma-Aldrich, cat. A9165), 10 mM nicotinamide (Sigma-Aldrich, cat. N0636), 1X B-27 supplement (Thermo Fisher Scientific, cat. 17504044), 1X N-2 supplement (Thermo Fisher Scientific, cat. 17502048), 10 microM Y-27632 dihydrochloride (Tocris Bioscience, cat. 1254), and 50 ng/mL human EGF recombinant protein (Thermo Fisher Scientific, cat. PHG0311). The 485176-168-R4-J1-PDC line was cultured in Panc media, which includes all 6C/Colon 1B media components plus 100 ng/mL human FGF-10 (Thermo Fisher Scientific, cat. 100-26), 500 nM SB-431542 (Selleckchem, cat. S1067), and gastrin (Tocris, cat. 3006).
[…]

[1] = second compound 0.0316 µM, first compound 0.0316 µM
[2] = second compound 0.0316 µM, first compound 0.316 µM
[3] = second compound 0.1 µM, first compound 0.0316 µM
[4] = second compound 0.1 µM, first compound 0.316 µM
[5] = second compound 0.316 µM, first compound 0.0316 µM
[6] = second compound 0.316 µM, first compound 0.316 µM
[7] = second compound 1 µM, first compound 0.0316 µM
[8] = second compound 1 µM, first compound 0.316 µM
[9] = second compound 3.16 µM, first compound 0.0316 µM
[10] = second compound 3.16 µM, first compound 0.316 µM
[11] = second compound 10 µM, first compound 0.0316 µM
[12] = second compound 10 µM, first compound 0.316 µM
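Note: viability read after seven days of drug exposure.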
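Throughout, for viability, T/C: luminescence signal used as a proxy for viable cells; 100% = DMSO vehicle control wells.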

**Q.** Which results are given for `COc1ncnc(C2CC2)c1-c1ncc2cnn(Cc3ccc(-c4nc(C(F)(F)F)cn4C(C)C)cc3)c2n1` + Cc1cnc(CNC(=O)c2c(=O)c3ccc(N4CCCN(C)CC4)nc3n3c2sc2ccccc23)cn1?
**A.** IC50 (second compound 0.0316 µM): < 31.6 nM; IC50 (second compound 0.1 µM): < 31.6 nM; IC50 (second compound 0.316 µM): < 31.6 nM; IC50 (second compound 1 µM): < 31.6 nM; IC50 (second compound 3.16 µM): < 31.6 nM; IC50 (second compound 10 µM): < 31.6 nM; viability, T/C [1]: 37.8%; viability, T/C (second compound 0.0316 µM, first compound 0.1 µM): 36%; viability, T/C [2]: 42.7%; viability, T/C (second compound 0.0316 µM, first compound 1 µM): 32.1%; viability, T/C (second compound 0.0316 µM, first compound 3.16 µM): 37.7%; viability, T/C (second compound 0.0316 µM, first compound 10 µM): 31.4%; viability, T/C [3]: 29.7%; viability, T/C (second compound 0.1 µM, first compound 0.1 µM): 26.2%; viability, T/C [4]: 29.4%; viability, T/C (second compound 0.1 µM, first compound 1 µM): 25.2%; viability, T/C (second compound 0.1 µM, first compound 3.16 µM): 28%; viability, T/C (second compound 0.1 µM, first compound 10 µM): 27.4%; viability, T/C [5]: 24.2%; viability, T/C (second compound 0.316 µM, first compound 0.1 µM): 24.7%; viability, T/C [6]: 25.8%; viability, T/C (second compound 0.316 µM, first compound 1 µM): 21.6%; viability, T/C (second compound 0.316 µM, first compound 3.16 µM): 25.2%; viability, T/C (second compound 0.316 µM, first compound 10 µM): 24.5%; viability, T/C [7]: 19.5%; viability, T/C (second compound 1 µM, first compound 0.1 µM): 18.5%; viability, T/C [8]: 22%; viability, T/C (second compound 1 µM, first compound 1 µM): 20.4%; viability, T/C (second compound 1 µM, first compound 3.16 µM): 25.4%; viability, T/C (second compound 1 µM, first compound 10 µM): 22.6%; viability, T/C [9]: 16.3%; viability, T/C (second compound 3.16 µM, first compound 0.1 µM): 21.4%; viability, T/C [10]: 22.7%; viability, T/C (second compound 3.16 µM, first compound 1 µM): 17.4%; viability, T/C (second compound 3.16 µM, first compound 3.16 µM): 25.9%; viability, T/C (second compound 3.16 µM, first compound 10 µM): 19.2%; viability, T/C [11]: 20.8%; viability, T/C (second compound 10 µM, first compound 0.1 µM): 20%; viability, T/C [12]: 23.5%; viability, T/C (second compound 10 µM, first compound 1 µM): 18.3%; viability, T/C (second compound 10 µM, first compound 3.16 µM): 23.7%; viability, T/C (second compound 10 µM, first compound 10 µM): 22%

**Q.** Which results are given for `Cn1ncnc1[C@H]1c2n[nH]c(=O)c3cc(F)cc(c23)N[C@@H]1c1ccc(F)cc1` + CN(C)c1ccc(Nc2c3ccc(NC(=O)CCN4CCCC4)cc3nc3cc(NC(=O)CCN4CCCC4)ccc23)cc1?
**A.** IC50 (second compound 0.0316 µM): 42.7 nM; IC50 (second compound 0.1 µM): 24.6 nM; IC50 (second compound 0.316 µM): 34.6 nM; IC50 (second compound 1 µM): 45 nM; IC50 (second compound 3.16 µM): < 0.999 nM; IC50 (second compound 10 µM): < 0.999 nM; viability, T/C (second compound 0.0316 µM, first compound 0.000999 µM): 95.1%; viability, T/C (second compound 0.0316 µM, first compound 0.00316 µM): 78.8%; viability, T/C (second compound 0.0316 µM, first compound 0.00999 µM): 84.6%; viability, T/C [1]: 50.4%; viability, T/C (second compound 0.0316 µM, first compound 0.0999 µM): 42.2%; viability, T/C [2]: 29%; viability, T/C (second compound 0.1 µM, first compound 0.000999 µM): 102%; viability, T/C (second compound 0.1 µM, first compound 0.00316 µM): 73%; viability, T/C (second compound 0.1 µM, first compound 0.00999 µM): 56.1%; viability, T/C [3]: 51.4%; viability, T/C (second compound 0.1 µM, first compound 0.0999 µM): 46.7%; viability, T/C [4]: 23%; viability, T/C (second compound 0.316 µM, first compound 0.000999 µM): 81.9%; viability, T/C (second compound 0.316 µM, first compound 0.00316 µM): 63.7%; viability, T/C (second compound 0.316 µM, first compound 0.00999 µM): 59.3%; viability, T/C [5]: 49.7%; viability, T/C (second compound 0.316 µM, first compound 0.0999 µM): 48.6%; viability, T/C [6]: 37.8%; viability, T/C (second compound 1 µM, first compound 0.000999 µM): 63.2%; viability, T/C (second compound 1 µM, first compound 0.00316 µM): 63.6%; viability, T/C (second compound 1 µM, first compound 0.00999 µM): 61.2%; viability, T/C [7]: 52.1%; viability, T/C (second compound 1 µM, first compound 0.0999 µM): 40.2%; viability, T/C [8]: 38.2%; viability, T/C (second compound 3.16 µM, first compound 0.000999 µM): 42.7%; viability, T/C (second compound 3.16 µM, first compound 0.00316 µM): 41.5%; viability, T/C (second compound 3.16 µM, first compound 0.00999 µM): 33.8%; viability, T/C [9]: 31.4%; viability, T/C (second compound 3.16 µM, first compound 0.0999 µM): 25.1%; viability, T/C [10]: 24.9%; viability, T/C (second compound 10 µM, first compound 0.000999 µM): 7.06%; viability, T/C (second compound 10 µM, first compound 0.00316 µM): 7.39%; viability, T/C (second compound 10 µM, first compound 0.00999 µM): 6.25%; viability, T/C [11]: 5.78%; viability, T/C (second compound 10 µM, first compound 0.0999 µM): 5.88%; viability, T/C [12]: 4.9%
